According to the CheMixHub viscosity set:
Several values for one entry are separate records, joined by “and”; a condition that tells them apart may be missing. Equal entries are not always repeated. ± gives the uncertainty stated by the source.

Experiment: xn = mol fraction of the nth substance listed

CNC(N)=O + O
viscosity [mPa·s], 101 kPa
Details | x1 = 9.02e-05 | x1 = 0.00018 | x1 = 0.00027 | x1 = 0.00036 | x1 = 0.0005402 | x1 = 0.00108 | x1 = 0.001799 | x1 = 0.004484
293.15 K | 1.003 ± 0.0092 | 1.01 ± 0.0092 | 1.002 ± 0.0092 | 1.007 ± 0.0092 | 1.008 ± 0.0092 | 1.017 ± 0.0092 | 1.013 ± 0.0094 | 1.036 ± 0.0095
298.15 K | 0.8881 ± 0.0083 | 0.8936 ± 0.0084 | 0.8933 ± 0.0083 | 0.8922 ± 0.0083 | 0.8992 ± 0.0084 | 0.9009 ± 0.0084 | 0.8963 ± 0.0083 | 0.9188 ± 0.0086
303.15 K | – | 0.7986 ± 0.0076 | 0.7953 ± 0.0076 | 0.798 ± 0.0076 | 0.8003 ± 0.0077 | 0.8032 ± 0.0077 | 0.8075 ± 0.0075 | 0.8214 ± 0.0078

O=C(O)C(O)C(O)C(=O)O (stereo unspecified) + O
viscosity, 100 kPa
Details | 298.15 K | 303.15 K | 308.15 K | 313.15 K | 318.15 K
x1 = 0.003486 | 0.9322 ± 0.019 mPa·s and 0.9322 ± 0.0083 mPa·s | 0.8367 ± 0.017 mPa·s and 0.8367 ± 0.0075 mPa·s | 0.7533 ± 0.016 mPa·s and 0.7533 ± 0.0068 mPa·s | 0.6829 ± 0.014 mPa·s and 0.6829 ± 0.0063 mPa·s | 0.6209 ± 0.013 mPa·s and 0.6209 ± 0.0059 mPa·s
x1 = 0.006751 | 0.9765 ± 0.02 mPa·s and 0.9765 ± 0.0086 mPa·s | 0.8735 ± 0.018 mPa·s and 0.8735 ± 0.0078 mPa·s | 0.7864 ± 0.016 mPa·s and 0.7864 ± 0.0071 mPa·s | 0.7098 ± 0.015 mPa·s and 0.7098 ± 0.0065 mPa·s | 0.6435 ± 0.013 mPa·s and 0.6435 ± 0.006 mPa·s
x1 = 0.009818 | 1.038 ± 0.022 mPa·s and 1.038 ± 0.0092 mPa·s | 0.9206 ± 0.019 mPa·s and 0.9206 ± 0.0082 mPa·s | 0.8235 ± 0.017 mPa·s and 0.8235 ± 0.0074 mPa·s | 0.7408 ± 0.015 mPa·s and 0.7408 ± 0.0068 mPa·s | 0.6707 ± 0.014 mPa·s and 0.6707 ± 0.0063 mPa·s
x1 = 0.0127 | 1.088 ± 0.023 mPa·s and 1.088 ± 0.0096 mPa·s | 0.9696 ± 0.02 mPa·s and 0.9696 ± 0.0086 mPa·s | 0.8645 ± 0.018 mPa·s and 0.8645 ± 0.0078 mPa·s | 0.7756 ± 0.016 mPa·s and 0.7756 ± 0.0071 mPa·s | 0.6996 ± 0.015 mPa·s and 0.6996 ± 0.0065 mPa·s

O=C([O-])[O-].[K+].[K+] + O
viscosity [mPa·s], 101 kPa
Details | 303.15 K | 308.15 K | 313.15 K
x1 = 0.002 | 0.839 ± 0.007 | 0.769 ± 0.007 | 0.703 ± 0.006
x1 = 0.005 | 0.889 ± 0.008 | 0.814 ± 0.007 | 0.745 ± 0.007
x1 = 0.009 | 0.944 ± 0.008 | 0.864 ± 0.008 | 0.793 ± 0.007

O=S(=O)([O-])[O-].[Ca+2] + O
100 kPa
Details | viscosity [mPa·s]
303.15 K, x1 = 0.000281 | 0.7976 ± 0.16
323.15 K, x1 = 0.000279 | 0.557 ± 0.11

O=[N+]([O-])[O-].O=[N+]([O-])[O-].O=[N+]([O-])[O-].[Ce+3] + O
viscosity [mPa·s], 101.3 kPa
Details | x1 = 0.009125 | x1 = 0.01824 | x1 = 0.02724 | x1 = 0.03472 | x1 = 0.05339 | x1 = 0.06671 | x1 = 0.0744
293.15 K | 1.312 ± 0.0096 | 1.718 ± 0.015 | 2.423 ± 0.02 | 3.281 ± 0.031 | 6.899 ± 0.097 | 13.02 ± 0.14 | 19.48 ± 0.16
298.15 K | 1.174 ± 0.0086 | 1.529 ± 0.011 | 2.169 ± 0.016 | 2.911 ± 0.021 | 5.937 ± 0.047 | 10.99 ± 0.085 | 16.06 ± 0.13
308.15 K | 0.9509 ± 0.0074 | 1.249 ± 0.0087 | 1.734 ± 0.013 | 2.299 ± 0.016 | 4.599 ± 0.028 | 8.055 ± 0.062 | 11.34 ± 0.11

O=[N+]([O-])[O-].O=[N+]([O-])[O-].[Mg+2] + O
viscosity [mPa·s], 100 kPa
Details | x1 = 0.01 | x1 = 0.03 | x1 = 0.05 | x1 = 0.07
298.15 K | 1.138 ± 0.046 | 1.6 ± 0.045 | 2.409 ± 0.065 | 4.609 ± 0.12
323.15 K | 0.707 ± 0.019 | 0.9853 ± 0.026 | 1.479 ± 0.039 | 2.709 ± 0.072

C1CCOC1 + O=C1CCCO1
viscosity [mPa·s]
Details | 293.15 K | 298.15 K | 303.15 K | 308.15 K | 313.15 K | 318.15 K | 323.15 K
101 kPa, x1 = 0.1009 | 1.614 ± 0.026 | 1.496 ± 0.025 | 1.39 ± 0.023 | 1.297 ± 0.022 | 1.212 ± 0.021 | 1.136 ± 0.02 | 1.068 ± 0.019
101 kPa, x1 = 0.2003 | 1.388 ± 0.023 | 1.292 ± 0.022 | 1.206 ± 0.021 | 1.128 ± 0.02 | 1.058 ± 0.019 | 0.995 ± 0.018 | 0.938 ± 0.017
101 kPa, x1 = 0.3008 | 1.203 ± 0.02 | 1.123 ± 0.019 | 1.052 ± 0.018 | 0.987 ± 0.018 | 0.93 ± 0.017 | 0.877 ± 0.016 | 0.83 ± 0.016
101 kPa, x1 = 0.4004 | 1.046 ± 0.018 | 0.98 ± 0.018 | 0.92 ± 0.017 | 0.866 ± 0.016 | 0.818 ± 0.016 | 0.773 ± 0.015 | 0.733 ± 0.015
101 kPa, x1 = 0.4916 | 0.936 ± 0.017 | 0.878 ± 0.016 | 0.825 ± 0.016 | 0.778 ± 0.015 | 0.735 ± 0.015 | 0.696 ± 0.014 | 0.66 ± 0.014
101 kPa, x1 = 0.5991 | 0.809 ± 0.015 | 0.761 ± 0.015 | 0.717 ± 0.014 | 0.677 ± 0.014 | 0.641 ± 0.014 | 0.608 ± 0.013 | 0.578 ± 0.013
101 kPa, x1 = 0.6997 | 0.706 ± 0.014 | 0.667 ± 0.014 | 0.631 ± 0.014 | 0.598 ± 0.013 | 0.567 ± 0.013 | 0.537 ± 0.013 | 0.511 ± 0.012
101 kPa, x1 = 0.8 | 0.62 ± 0.013 | 0.589 ± 0.013 | 0.56 ± 0.013 | 0.531 ± 0.013 | 0.506 ± 0.012 | 0.482 ± 0.012 | 0.461 ± 0.012
101 kPa, x1 = 0.8997 | 0.567 ± 0.013 | 0.538 ± 0.013 | 0.511 ± 0.012 | 0.485 ± 0.012 | 0.463 ± 0.012 | 0.441 ± 0.012 | 0.415 ± 0.012
101.33 kPa, x1 = 0.1077 | 1.583 ± 0.013 | 1.462 ± 0.012 | – | – | – | – | –
101.33 kPa, x1 = 0.3124 | 1.172 ± 0.009 | 1.089 ± 0.008 | – | – | – | – | –
101.33 kPa, x1 = 0.701 | 0.682 ± 0.005 | 0.641 ± 0.005 | – | – | – | – | –
101.33 kPa, x1 = 0.8954 | 0.539 ± 0.004 | 0.51 ± 0.004 | – | – | – | – | –

CC(C)C[P+](C)(CC(C)C)CC(C)C.Cc1ccc(S(=O)(=O)[O-])cc1 + O=S1(=O)CCCC1
Details | viscosity [mPa·s]
323.15 K, 101.33 kPa, x1 = 0.5 | 68.5 ± 14

CCCC[P+](CCCC)(CCCC)CCCC.CS(=O)(=O)[O-] + O=S1(=O)CCCC1
Details | viscosity [mPa·s]
313.15 K, 101.33 kPa, x1 = 0.5 | 84.22 ± 17
